Values after ≈ are worked out from the molar mass of the structure shown.
Columns and labels:
[1] = Inhibition of Candida albicans MY1055 NADH:cytochrome bc1 reductase
Candida albicans = assay: Antifungal activity against Candida albicans MY1055 assessed as growth inhibition after 24 hrs by liquid microdilution assay; assay type: functional; conditions: MY1055, 24 h
[2] = Inhibition of rat liver NADH:cytochrome bc1 reductase

| IC50 [1] [µg/mL] | MIC (Candida albicans) [µg/mL] | IC50 [2] [µg/mL] | SMILES |
| --- | --- | --- | --- |
| 0.002 (≈ 0.00386 µM) | 0.25 (≈ 0.483 µM) | 0.008 (≈ 0.0155 µM) | C/C=C/[C@@H]1[C@H]2C[C@@H](CO)CC[C@@H]2C(C)=C[C@H]1C(=O)c1c(O)c(-c2ccc(OC(=O)C3CC3)cc2)c[nH]c1=O |
| 0.005 (≈ 0.0092 µM) | 1 (≈ 1.84 µM) | > 1 | C/C=C/[C@@H]1[C@H]2C[C@@H](C)CC[C@@H]2C(C)=C[C@H]1C(=O)c1c(O)c(-c2ccc(OC(=O)c3ccsc3)cc2)c[nH]c1=O |
| 1 (≈ 2.1 µM) | > 1 |  | C/C=C/[C@@H]1[C@H]2C[C@@H](C)CC[C@@H]2C(C)=C[C@H]1C(=O)c1c(OC)c(-c2ccc(OC)cc2)cn(C)c1=O |
| 0.4 (≈ 0.736 µM) | > 1 | > 1.6 | C/C=C/[C@@H]1[C@H]2C[C@@H](C)CC[C@@H]2C(C)=C[C@H]1C(=O)c1c(O)c(-c2ccc(OC(=O)C3CCCCC3)cc2)c[nH]c1=O |
| 0.04 (≈ 0.0815 µM) | 0.031 (≈ 0.0632 µM) |  | C/C=C/[C@@H]1[C@H]2C[C@@H](C)CC[C@@H]2C(C)=C[C@H]1C(=O)c1c(O)c(-c2ccc(O)cc2)cn(CC(N)=O)c1=O |
| 0.5 (≈ 0.878 µM) | 1 (≈ 1.76 µM) | > 1 | C/C=C/[C@@H]1[C@H]2C[C@@H](C)CC[C@@H]2C(C)=C[C@H]1C(=O)c1c(O)c(-c2ccc(OC(=O)/C=C/c3ccsc3)cc2)c[nH]c1=O |
| 0.008 (≈ 0.0173 µM) | > 1 |  | C/C=C/[C@@H]1[C@H]2C[C@@H](C)CC[C@@H]2C(C)=C[C@H]1C(=O)c1c(O)c(-c2ccc(OC)cc2)cn(C)c1=O |
| 0.0021 (≈ 0.00427 µM) | 0.5 (≈ 1.02 µM) | > 1.6 | C/C=C/[C@@H]1[C@H]2C[C@@H](COC(C)=O)CC[C@@H]2C(C)=C[C@H]1C(=O)c1c(O)c(-c2ccc(O)cc2)c[nH]c1=O |
| 0.2 (≈ 0.365 µM) | > 1 | > 1 | C/C=C/[C@@H]1[C@H]2C[C@@H](C)CC[C@@H]2C(C)=C[C@H]1C(=O)c1c(O)c(-c2ccc(OCC(N)=O)cc2)cn(CC(N)=O)c1=O |
| 0.0008 (≈ 0.00137 µM) | > 5 | 0.01 (≈ 0.0171 µM) | C/C=C/[C@@H]1[C@H]2C[C@@H](COC(=O)C3CC3)CC[C@@H]2C(C)=C[C@H]1C(=O)c1c(O)c(-c2ccc(OC(=O)C3CC3)cc2)c[nH]c1=O |
| 0.008 (≈ 0.0169 µM) | 1 (≈ 2.11 µM) | 1 (≈ 2.11 µM) | C=CCn1cc(-c2ccc(O)cc2)c(O)c(C(=O)[C@@H]2C=C(C)[C@H]3CC[C@H](C)C[C@@H]3[C@H]2/C=C/C)c1=O |
| 0.008 (≈ 0.0149 µM) | 1 (≈ 1.86 µM) | 1 (≈ 1.86 µM) | C/C=C/[C@@H]1[C@H]2C[C@@H](C)CC[C@@H]2C(C)=C[C@H]1C(=O)c1c(O)c(-c2ccc(OC(=O)c3ccccc3)cc2)c[nH]c1=O |
| 0.02 (≈ 0.0346 µM) | 0.312 (≈ 0.54 µM) | 1.6 (≈ 2.77 µM) | C/C=C/[C@@H]1[C@H]2C[C@@H](C)CC[C@@H]2C(C)=C[C@H]1C(=O)c1c(O)c(-c2ccc(OC(=O)C/C=C/c3ccccc3)cc2)c[nH]c1=O |
|  | > 1 |  | C/C=C/c1c(C(=O)c2c(O)c(-c3ccc(O)cc3)c[nH]c2=O)cc(C)c2c1C[C@@H](C)CC2 |
| 0.0105 (≈ 0.0199 µM) | 0.0625 (≈ 0.118 µM) | > 1 | C/C=C/[C@@H]1[C@H]2C[C@@H](C)CC[C@@H]2C(C)=C[C@H]1C(=O)c1c(O)c(-c2ccc(OC(=O)c3ccoc3)cc2)c[nH]c1=O |
| 0.2 (≈ 0.427 µM) | 5 (≈ 10.7 µM) | 1 (≈ 2.14 µM) | C/C=C/[C@@H]1[C@H]2C[C@@H](C)CC[C@@H]2[C@](C)(Cl)[C@H]2Oc3ncc(-c4ccc(O)cc4)c(O)c3C(=O)[C@@H]12 |
| 1 (≈ 2.17 µM) | > 5 | 1 (≈ 2.17 µM) | C/C=C/[C@@H]1[C@H]2C[C@@H](C)CC[C@@H]2C(C)=C[C@H]1C(=O)c1c(O)c(-c2ccc(OCC)cc2)c[nH]c1=O |
| 1 (≈ 1.79 µM) | > 5 | 1 (≈ 1.79 µM) | C/C=C/[C@@H]1[C@H]2C[C@@H](C)CC[C@@H]2[C@](C)(I)[C@H]2Oc3ncc(-c4ccc(O)cc4)c(O)c3C(=O)[C@@H]12 |
| 0.01 (≈ 0.0178 µM) | 0.125 (≈ 0.223 µM) | > 0.8 | C/C=C/[C@@H]1[C@H]2C[C@@H](COC(=O)CC)CC[C@@H]2C(C)=C[C@H]1C(=O)c1c(O)c(-c2ccc(OC(=O)CC)cc2)c[nH]c1=O |
| 0.02 (≈ 0.0447 µM) | > 1 | > 1 | C/C=C/[C@@H]1[C@H]2C[C@@H](C)CC[C@@H]2C(C)=C[C@H]1C(=O)c1c(OC)ncc(-c2ccc(O)cc2)c1O |
| 0.001 (≈ 0.00212 µM) | 0.062 (≈ 0.131 µM) | 0.8 (≈ 1.69 µM) | C/C=C/[C@@H]1[C@H]2C[C@@H](C)CC[C@@H]2C(C)=C[C@H]1C(=O)c1c(O)c(-c2ccc(O)cc2)cn(CC#N)c1=O |
| 1 (≈ 1.49 µM) | > 5 | 1 (≈ 1.49 µM) | C/C=C/[C@@H]1[C@H]2C[C@@H](C)CC[C@@H]2[C@](C)(Br)[C@H]2Oc3ncc(-c4ccc(O)c(Br)c4Br)c(O)c3C(=O)[C@@H]12 |

| IC50 [1] [µg/mL] | MIC (Candida albicans) [µg/mL] | IC50 [2] [µg/mL] | SMILES |
| --- | --- | --- | --- |
| > 1 | > 5 | 1 (≈ 1.95 µM) | C/C=C/[C@@H]1[C@H]2C[C@@H](C)CC[C@@H]2[C@](C)(Br)[C@H]2Oc3ncc(-c4ccc(O)cc4)c(O)c3C(=O)[C@@H]12 |
| > 1.6 | > 5 | 1.6 (≈ 2.92 µM) | C/C=C/[C@@H]1[C@H]2C[C@@H](C)CC[C@@H]2C(C)=C[C@H]1C(=O)c1c(O)c(-c2ccc(O)cc2)cn(CC(=O)OC(C)(C)C)c1=O |
| > 1 | > 5 | 1 (≈ 2.15 µM) | CC1O[C@H]1[C@@H]1[C@H]2C[C@@H](C)CC[C@@H]2[C@](C)(O)[C@H]2Oc3ncc(-c4ccc(O)cc4)c(O)c3C(=O)[C@@H]12 (stereo partly drawn) |
| > 1 | > 5 | 1 (≈ 2.22 µM) | C/C=C/[C@@H]1[C@H]2C[C@@H](C)CC[C@@H]2[C@](C)(O)[C@H]2Oc3ncc(-c4ccc(O)cc4)c(O)c3C(=O)[C@@H]12 |
| 0.005 (≈ 0.0079 µM) | 0.25 (≈ 0.395 µM) | > 1 | C/C=C/[C@@H]1[C@H]2C[C@@H](C)CC[C@@H]2C(C)=C[C@H]1C(=O)c1c(O)c(-c2ccc(OC(=O)CCCCNC(=O)OC(C)(C)C)cc2)c[nH]c1=O |
| > 1 | > 5 | 1 (≈ 1.69 µM) | C/C=C/[C@@H]1[C@H]2C[C@@H](C)CC[C@@H]2[C@](C)(Br)[C@H]2Oc3ncc(-c4ccc(O)c(Br)c4)c(O)c3C(=O)[C@@H]12 |
| 0.006 (≈ 0.00842 µM) | 0.125 (≈ 0.175 µM) | 1 (≈ 1.4 µM) | C/C=C/[C@@H]1[C@H]2C[C@@H](C)CC[C@@H]2C(C)=C[C@H]1C(=O)c1c(O)c(-c2ccc(OC(=O)CNC(=O)OCC3c4ccccc4-c4ccccc43)cc2)c[nH]c1=O |
|  | 0.312 (≈ 0.676 µM) |  | C/C=C/[C@@H]1[C@H]2C[C@@H](C)CC[C@@H]2C(C)=C[C@H]1C(=O)c1c(O)c(-c2ccc(O)cc2)cn(CC)c1=O |
| 0.16 (≈ 0.325 µM) | 0.5 (≈ 1.02 µM) | > 0.8 | C/C=C/[C@@H]1[C@H]2C[C@@H](CO)CC[C@@H]2C(C)=C[C@H]1C(=O)c1c(O)c(-c2ccc(OC(C)=O)cc2)c[nH]c1=O |
| 0.002 (≈ 0.00388 µM) | 0.062 (≈ 0.12 µM) | > 0.8 | C/C=C/[C@@H]1[C@H]2C[C@@H](C)CC[C@@H]2C(C)=C[C@H]1C(=O)c1c(O)c(-c2ccc(OC(=O)C3CCC3)cc2)c[nH]c1=O |
| 0.0016 (≈ 0.00357 µM) | 0.25 (≈ 0.559 µM) | 0.25 (≈ 0.559 µM) | C/C=C/[C@@H]1[C@H]2C[C@@H](C)CC[C@@H]2C(C)=C[C@H]1C(=O)c1c(O)c(-c2ccc(O)cc2)cn(C)c1=O |
| > 1 | > 5 | 1 (≈ 1.82 µM) | C/C=C/[C@@H]1[C@H]2C[C@@H](C)CC[C@@H]2C(C)=C[C@H]1C(=O)c1c(O)c(-c2ccc(OCC(=O)O)cc2)cn(CC(=O)O)c1=O |
| 0.2 (≈ 0.317 µM) | 5 (≈ 7.92 µM) | 1 (≈ 1.58 µM) | C/C=C/[C@@H]1[C@H]2C[C@@H](C)CC[C@@H]2C(C)=C[C@H]1C(=O)c1c(O)c(-c2ccc(OC(=O)Nc3ccc(Br)cc3)cc2)c[nH]c1=O |
| 0.006 (≈ 0.0127 µM) | 0.125 (≈ 0.265 µM) | 1 (≈ 2.12 µM) | C/C=C/[C@@H]1[C@H]2C[C@@H](C)CC[C@@H]2C(C)=C[C@H]1C(=O)c1c(O)c(-c2ccc(OCC#N)cc2)c[nH]c1=O |
| > 1 | > 1 |  | C/C=C/[C@H]1[C@@H]2C(=O)c3c(ncc(-c4ccc(O)cc4)c3O)O[C@@H]2C(C)=C2CC[C@H](C)C[C@@H]21 |
| 0.004 (≈ 0.00646 µM) | 0.125 (≈ 0.202 µM) | > 1 | C/C=C/[C@@H]1[C@H]2C[C@@H](C)CC[C@@H]2C(C)=C[C@H]1C(=O)c1c(O)c(-c2ccc(OC(=O)CCCNC(=O)OC(C)(C)C)cc2)c[nH]c1=O |
| 0.008 (≈ 0.0158 µM) | 0.25 (≈ 0.494 µM) | > 0.8 | C/C=C/[C@@H]1[C@H]2C[C@@H](CO)CC[C@@H]2C(C)=C[C@H]1C(=O)c1c(O)c(-c2ccc(OC(=O)CC)cc2)c[nH]c1=O |
| 0.00081 (≈ 0.00165 µM) | 0.125 (≈ 0.255 µM) | > 1.6 | C/C=C/[C@@H]1[C@H]2C[C@@H](C)CC[C@@H]2C(C)=C[C@H]1C(=O)c1c(O)c(-c2ccc(OC(=O)CC)cc2)c[nH]c1=O |
| > 1 | > 5 | 1 (≈ 2.03 µM) | C/C=C/[C@@H]1[C@H]2C[C@@H](C)CC[C@@H]2C(C)=C[C@H]1C(=O)c1c(O)c(-c2ccc(O)cc2)cn(CC(=O)O)c1=O |
| 0.1 (≈ 0.195 µM) | 1 (≈ 1.95 µM) |  | C/C=C/[C@@H]1[C@H]2C[C@@H](C)CC[C@@H]2C(C)=C[C@H]1C(=O)c1c(O)c(-c2ccc(OCC#N)cc2)cn(CC#N)c1=O |
|  | > 5 |  | C/C=C/[C@@H]1[C@H]2C[C@@H](C)CC[C@@H]2[C@](C)(I)[C@H]2Oc3ncc(-c4ccc(O)c(I)c4)c(O)c3C(=O)[C@@H]12 |

Source: ChEMBL document CHEMBL2380203, “Structure-activity relationship of cytochrome bc1 reductase inhibitor broad spectrum antifungal ilicicolin H” (Bioorg Med Chem Lett, 2013)
